Reference: patent US20040002457A1, “Inhibition of virus anchorage by RGG domain of a cell surface-expressed protein, polynucleotide coding for said RGG domain, therapeutic uses thereof by inhibition of microorganism or protein ligand binding to the cell-surface-expressed protein” (priority 2002, published 2004)
Where two headings read alike, the source gives them in different places. No end group written: not given here.

Columns and labels:
CHO K1 cells = assay: Biotinylated HB-19A binding to wild type CHO K1 cells; parameters: species or system Chinese hamster; conditions: wild type CHO K1 cells (FIG. 3B)
Method: (§1) Assay of HB-19A binding to cells. Cells were plated at 10^4 cells/well in 96-well-plates for the ^1251-labeled HB-19A binding or at 10^5 cells/well, in 24-well-plates for the biotinylated HB-19A binding. Twenty four hours later, binding experiments were performed after incubation of the cell monolayers in fresh culture medium for 1 h at room temperature (about 21° C.) in order to cool cells. It should be noted that intracellular entry of HB-19A is inhibited more than 90% at room temperature. Cells were incubated (30 min at room temperature) with different concentrations of the ^125I-labeled HB-19A or the biotinylated HB-19A before washing cells in culture medium containing 10% FCS. For total amount of binding (specific and non-specific), cells were washed 7 times with culture medium. For specific binding measurements, cells were first washed 3 times in culture medium supplemented with 150 mM NaCl thus bringing the final concentration of NaCl to 300 mM followed by 4 washings in culture medium. Washed cells were processed to reveal either the ^125I-labeled HB-19A or the biotinylated HB-19A. For the ^1251-labeled HB-19A binding, cell monolayers were extracted in 1% SDS and the radioactivity was measured in an automatic gamma counter (LKB Wallac Clini Gamma 1272). […] Finally, ortho-phenylenediamine solution was added in the dark and the absorbance was measured at 405 nm.

[1] = tested on: C-terminal part of nucleolin; assay: Biotinylated HB-19A binding to in vitro translated C-terminal part of nucleolin; parameters: species or system human; conditions: amino acids 309-707 (FIG. 6)
Method: (§2) In vitro transcription and translation of human nucleolin. The TNT coupled reticulocyte lysate system (Promega) was used to produce the wild-type nucleolin (pcDNA4 Nuc) and the N- and C-terminal parts of nucleolin (pcDNA4 NucN and pcDNA4 NucC containing amino acids 1-308 and 309-707) by in vitro transcription/translation. Reactions were performed by using 2 μg of each plasmid and 20 μCi of […].
(§3) To assay the HB-19A binding capacity of the generated nucleolin and nucleolin truncated constructs, 25 μl of translation products were diluted in 25 μl of modified BI buffer (20 mM Tris-HCl, pH 7.6,100 mM NaCl, 50 mM KCl, 2 mM EDTA, 2% Triton X-100,1000 U/ml aprotinin), centrifuged at 12,000 g for 10 min at 4° C. and diluted in 150 μl of PBS. Binding reactions were performed by incubating 200 μl of each diluted lysates with the biotinylated HB-19A for 1 h at 4° C. Complexes formed between nucleolin deletion constructs and biotinylated HB-19A were isolated by purification of the extracts using avidin-agarose (100 μl) in PBS-EDTA (12). After 2 h of incubation at 4° C., the samples were washed extensively with PBS-EDTA. The purified proteins were eluted by heating in the electrophoresis sample buffer containing SDS and analyzed by SDS-PAGE.

CHO 618 cells = assay: Biotinylated HB-19A binding to mutant CHO 618 cells; parameters: species or system Chinese hamster; conditions: CHO 618 devoid of heparan- and chondroitin-sulfate proteoglycans (FIG. 3B)
Method: as §1

[2] = biological target: T1, N-terminal part of nucleolin (Homo sapiens, UniProt P19338); assay: Biotinylated HB-19A binding to in vitro translated N-terminal part of nucleolin; conditions: amino acids 1 to 308, contains the acidic stretches (FIG. 6)
T1 construct: pcDNA4 NucN and pcDNA4 NucC containing amino acids 1-308 and 309-707; vector-encoded His leader of pcDNA4His/Max C (only the vector name is printed); made in house; host or cells: cell-free: TNT coupled rabbit reticulocyte lysate (Promega), 35S-Met/Cys labelled, used crude
Method: as §2, §3

RGG domain of nucleolin = assay: Biotinylated HB-19A binding to GST constructs of nucleolin containing the RGG domain; parameters: species or system human; conditions: constructs containing the RGG domain (FIG. 8, lanes 1234G, R234G, G)
Method: Expression and purification of recombinant nucleolin constructs. Escherichia coli (E. coli) BL21 (DE3) cells were transformed with each pGEX-N3 plasmid coding for truncated derivatives of the C-terminal part of human nucleolin. Cells were grown overnight at 37° C. in 100 ml of Terrific Broth containing 100 μg of ampicillin per ml. After 1:50 dilution in 100 ml of fresh medium, cells were grown at 30° C. to a 600 nm optical density of approximately 0.5 (6 h) and induced with 0.5 mM isopropyl-1-thio-D-galactopyranoside (IPTG) for an additional 2 h. Bacteria were pelleted at 4,000 g for 10 min at 4° C., resuspended in 5 ml of PBS containing 0.2 mM phenylmethylsulphonyl flouride (PMSF) and 1 mM DTT, and frozen at −20° C. overnight. […] The presence of proteins in cell extracts was monitored by SDS-Page with Coomassie blue staining, and their respective concentration estimated and adjusted.
To assay HB-19A binding capacity, bacterial extracts were first diluted 5-fold in PBS-EDTA before centrifugation at 12,000 g for 10 min at 4° C. […] The purified proteins were eluted by heating in the electrophoresis sample buffer containing SDS and analyzed by immunoblotting using anti-GST monoclonal antibody B-14 (Santa Cruz Biotechnology, Inc.).

HIV = conditions: 1 μM HB-19A, different types of cells (refs 1, 10); cited from earlier work
HIV particles = conditions: CD4+ target cells (refs 1, 4, 13, 26); cited from earlier work
HeLa P4 cells = assay: HB-19A binding to HeLa P4 cells (125I-labeled HB-19A); parameters: species or system human; conditions: HeLa P4 cells washed at 300 mM NaCl (FIG. 3A)
Method: as §1

HIV-1 LAI [3] = assay: HIV-1 LAI infection in HeLa P4 cells (LTR-lacZ, β-galactosidase); assay type: cell-based; conditions: HB-19A 1 μM (FIG. 9)
Method: Assay of HIV infection in HeLa CD4+cells. HIV-1 LAI infection was monitored indirectly in HeLa-CD4-LTR-/ac Z cells (HeLa P4 cells) containing the bacterial lac Z gene under the control of HIV-1 LTR. HIV-1 entry and replication result in the activation of the HIV-1 LTR leading to the expression of p-galactosidase. At 48 h post-infection, cells were lysed and assayed for β-galactosidase activity using the chlorophenol-red-β-D-galactopyranoside as a substrate. The optical density was measured at 570 nm (1). The HIV-1 Ba-L infection was monitored in HeLa-CD4-LTR-/ac Z cells but expressing also CCR5 (HeLa F4-C5 cells) as above (1).
Assay of peptides for their activity. Each peptide is tested at different concentrations to investigate their capacity to inhibit HIV infection. Each peptide is investigated for its binding capacity to the HB-19, using biotin-coupled HB-19.

full-length nucleolin = biological target: T2, full-length nucleolin (Homo sapiens, UniProt P19338); assay: Biotinylated HB-19A binding to in vitro translated full-length nucleolin (avidin-agarose); conditions: amino acids 1 to 707, 0.5 or 1 μM biotinylated HB-19A (FIG. 6)
T2 construct: labeled full length nucleolin, N-terminal and the C-terminal parts containing amino acids 1 to 707; vector-encoded His leader of pcDNA4His/Max C (only the vector name is printed); made in house; host or cells: cell-free: TNT coupled rabbit reticulocyte lysate (Promega), 35S-Met/Cys labelled, used crude
Method: as §2, §3

HIV-1 LAI [4] = conditions: cited from earlier work

T2 sequence (P19338 whole entry, the tested form may be a part): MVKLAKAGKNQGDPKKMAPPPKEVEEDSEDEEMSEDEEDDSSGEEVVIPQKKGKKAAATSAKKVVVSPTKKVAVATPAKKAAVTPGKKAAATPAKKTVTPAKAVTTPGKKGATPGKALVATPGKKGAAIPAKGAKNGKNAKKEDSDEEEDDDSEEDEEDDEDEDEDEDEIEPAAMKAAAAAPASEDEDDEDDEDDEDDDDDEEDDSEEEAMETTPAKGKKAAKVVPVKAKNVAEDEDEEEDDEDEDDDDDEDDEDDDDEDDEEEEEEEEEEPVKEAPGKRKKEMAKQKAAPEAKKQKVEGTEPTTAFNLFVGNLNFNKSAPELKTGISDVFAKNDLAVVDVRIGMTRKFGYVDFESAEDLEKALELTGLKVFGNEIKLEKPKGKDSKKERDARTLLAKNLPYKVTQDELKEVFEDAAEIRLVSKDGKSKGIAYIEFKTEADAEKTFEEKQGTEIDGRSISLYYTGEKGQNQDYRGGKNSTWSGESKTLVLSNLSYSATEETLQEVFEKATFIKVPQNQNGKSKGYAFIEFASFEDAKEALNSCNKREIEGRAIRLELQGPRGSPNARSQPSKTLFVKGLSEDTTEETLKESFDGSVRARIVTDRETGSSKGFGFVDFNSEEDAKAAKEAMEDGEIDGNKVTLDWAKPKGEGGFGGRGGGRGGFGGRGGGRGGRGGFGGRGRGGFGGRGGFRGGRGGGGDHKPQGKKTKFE
Sequence of RGG domain of nucleolin (P19338 648-710 limits assumed): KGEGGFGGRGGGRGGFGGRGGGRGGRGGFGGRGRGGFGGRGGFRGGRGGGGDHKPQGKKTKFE
Sequence of C-terminal part of nucleolin (P19338 312-710 limits assumed): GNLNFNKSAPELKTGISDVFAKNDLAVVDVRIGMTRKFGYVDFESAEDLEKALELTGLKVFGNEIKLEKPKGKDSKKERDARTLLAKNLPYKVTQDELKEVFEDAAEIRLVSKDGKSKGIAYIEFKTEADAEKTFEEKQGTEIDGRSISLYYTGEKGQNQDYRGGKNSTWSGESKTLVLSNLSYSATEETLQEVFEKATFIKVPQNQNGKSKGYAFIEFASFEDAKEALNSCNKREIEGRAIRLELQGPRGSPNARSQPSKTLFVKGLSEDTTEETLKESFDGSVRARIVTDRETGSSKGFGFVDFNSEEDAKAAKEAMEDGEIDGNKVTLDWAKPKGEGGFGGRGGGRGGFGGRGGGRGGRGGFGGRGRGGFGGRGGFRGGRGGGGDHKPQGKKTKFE
T1 sequence (P19338 1-308): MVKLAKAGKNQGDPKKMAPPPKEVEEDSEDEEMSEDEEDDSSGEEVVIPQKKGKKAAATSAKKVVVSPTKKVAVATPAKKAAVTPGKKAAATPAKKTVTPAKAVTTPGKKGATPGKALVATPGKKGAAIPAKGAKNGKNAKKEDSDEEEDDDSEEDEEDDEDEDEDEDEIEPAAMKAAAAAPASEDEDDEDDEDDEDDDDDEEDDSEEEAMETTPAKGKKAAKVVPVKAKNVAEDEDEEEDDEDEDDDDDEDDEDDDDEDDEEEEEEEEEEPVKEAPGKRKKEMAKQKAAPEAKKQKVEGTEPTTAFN

For “HB-19A: new generation of HB-19 presenting pentavalently the Kψ(CH2N)PR moiety coupled to a modified TASP template (peptide Lys-Pro-Arg; chain KKKKA; also: Kψ(CH2N)P reduced bond, pentavalent on modified TASP template)”, which “concentration at which binding reaches saturation” value (CHO K1 cells) is on record?
The value was 1 µM.

What about the “binding to C-terminal part of nucleolin” value [1] of the same substance?
Its value is “bound efficiently”.

What about the “HB-19A binding profile compared with CHO K1” value (CHO 618 cells) of the same substance?
Its value is “no significant difference”.

And the “binding to N-terminal part of nucleolin” value [2]?
The value was “did not bind at all”.

And the “HB-19A concentration at which binding reaches maximum value” (RGG domain of nucleolin)?
Its value is 5 µM.

What about the “inhibition of HIV infection” value (HIV) of the same substance?
Its value is “more than 95%”.

And the “anchorage of HIV particles” value (HIV particles)?
The value was “inhibited”.

And the “concentration at which specific binding reaches saturation” value (HeLa P4 cells)?
The value was 1 µM.

What about the “HIV entry at the level of HIV attachment, pretreatment of cells” value (HIV-1 LAI [3]) of the same substance?
The value was “inhibition of HIV entry”.

And the “binding to full-length nucleolin” value (full-length nucleolin)?
Its value is “bind”.

With 5[Kψ(CH2N)PR]-TASP [HB-19] as the substance, how does the “anchorage of HIV particles” value (HIV particles) read?
Its value is “inhibited”.

And the “HIV entry at the level of HIV attachment, pretreatment of cells” value (HIV-1 LAI [4]; HeLa P4 cells (refs 1, 4))?
Its value is “inhibition of HIV entry”.

And the “resistance to HIV of pretreated cells after removal of the medium containing the inhibitor” value (HIV-1 LAI [4]; several hours after removal (ref 1))?
The value was “remain resistant”.

For “fibroblast growth factor 2: growth factor which binds heparan sulfate proteoglycans”, which “anchorage of HIV particles” value (HIV particles) is on record?
Its value is “inhibited”.

Which “anchorage of HIV particles” value (HIV particles) does the source give for “RRWCYRKDKPYRKCR [TW70, anti-HIV cyclic peptide specific for CXCR4, reference compound]” here?
Its value is “inhibited”.
